Where two headings read alike, the source gives them in different places.

Test [1] concerns human keratinocytes. In words: DNA synthesis in keratinocytes (3H-thymidine incorporation, keratinocyte proliferation). The test is classed as cell-based. Particulars: Homo sapiens, Keratinocyte; for activity at 0.1 µM / activity at 1 µM / activity at 10 µM / activity at 100 µM / activity at 1000 µM / activity at 10000 µM: read-out: Rate of DNA synthesis; for minimal effective concentration: read-out: concentration at which inhibitory to DNA synthesis. From the text:
The incorporation of ^3 H-thymidine by cultured keratinocytes was used as an assay of keratinocyte proliferation. Thymidine is one of four deoxynucleosides which are the monomeric units of DNA, the universal library of genetic information in the animal kingdom. Prior to cell division of a somatic cell such as a keratinocyte, the complete genome of the cell undergoing cell division is replicated. This involves large scale DNA synthesis by the cell and enables both daughter cells to receive identical copies of the genetic material. When ^3 H-thymidine is included in the culture media of keratinocytes which are synthesizing DNA in preparation for cell division then the labelled nucleoside is incorporated into the newly synthesized DNA. The extent of incorporation of ^3 H-thymidine into a population of cells is proportional to the rate of DNA synthesis by this population of cells and therefore an indication of their cellular proliferation.
1. Normal human keratinocytes isolated from neonatal foreskins by trypsin treatment were grown in DME medium/5% fetal calf serum in the presence of mitomycin C treated 3T3 mouse fibroblasts for establishing dividing keratinocyte colonies. Keratinocytes were grown under the above condition until their third passage.
2. For the experiments, third passage keratinocytes were plated into a serum-free keratinocyte growth medium (KGM; obtained from Clonetics, San Diego, Calif.) containing 0.09 mM calcium. 20,000 to 30,000 cells were plated into each well of 24 well cell culture plates and grown for 5 days, until the cells reach about 80% confluence.
3. Medium was changed to fresh medium and the various test materials were added to the medium from an ethanolic stock solution. The final ethanol concentration in the cultures was kept below 0.2%. Control cultures received no tested material but were dosed with 0.2% ethanol. Each compound or combination was tested in three separate wells. In four hours, 1 uCi of ^3 H-thymidine (Amersham Corp., Sp activity 40 Ci/mmol) was added to the 1 ml medium in each well. The cells were incubated overnight and 24 hours later the amount of ^3 H-thymidine associated with the cellular DNA of keratinocytes was assessed as described below.
4. The medium was aspirated, and the wells washed with 1 ml phosphate-buffered saline. The DNA and proteins of the cells in the plate were then precipitated by adding 1 ml of ice-cold 10% trichloroacetic acid (TCA). The plates were left on ice for 30 minutes to complete the precipitation process. TCA was then aspirated and each well was then washed four times with 5% TCA. The plates were then dried on a filter pad and the cells in the wells were dissolved in 0.5 ml of 0.1N sodium hydroxide. The sodium hydroxide was then neutralized using 0.1N hydrochloric acid and the solution (1 ml total volume) was then transferred to a scintillation vial. 50 μl samples from each vial were used for protein assay using BCA protein assay reagent obtained from Pierce Chemical Company. 8 ml of a scintillation fluid (Ecolume) was added to the rest of the solution in the vial, and the vials were counted in a scintillation counter to determine the amount of radioactivity in each vial. The DNA synthesis rate was then calculated as cpm ^3 H thymidine incorporated into total cellular DNA/microgram of cell protein for each individual well.

In a further test the test system is Transglutaminase (TG-1). The test can be described thus: Transglutaminase I levels in keratinocytes (ELISA based TG-1 assay). The test is classed as cell-based, human. Particulars: 48 hour treatment. The protocol: (§1) Human keratinocytes, isolated from neonatal foreskin by trypsin treatment were grown in Dulbecco Modification Eagle (DME) Hams F12 (3:1) medium/5% fetal calf serum in the presence of mitomycin C treated 3T3 mouse fibroblasts for establishing dividing keratinocyte colonies. Cells were grown under the above condition until their second passage and kept frozen for future use. Frozen second passage keratinocytes were thawed and plated into the above medium and grown for five days. On day 5, when the cells were 70-80% confluent, they were trypsinized and plated in the serum-free medium for the various experiments.
(§2) During the process of terminal differentiation in the epidermis, a 15 nm thick layer of protein, known as the cornified envelope (CE)is formed on the inner surface of the cell periphery. The CE is composed of numerous distinct proteins which have been cross-linked together by the formation of N ^ε -(-γ-glutamyl) lysine isodipeptide bonds catalyzed by the action of at least two different transglutaminases expressed in the epidermis. Transglutaminase (TG-1) is expressed in abundance in the differentiated layers of the epidermis, especially the granular layer, but is absent in the undifferentiated basal epidermis. Thus, TG-1 is a useful marker of epidermal keratinocyte differentiation with high TG-1 levels indicating a more differentiated state. An ELISA based TG-1 assay, using a TG-1 antibody, was used to assess the state of differentiation of the cultured keratinocytes in the examples that follow.
The level of TG-1 was measured as follows. […] The DNA content of the cells in the wells were first determined before the TG-1 assay.
TG-1 levels of the cells in the wells were determined using the TG-1 specific monoclonal antibody (BC1) (first antibody) (obtained from Amersham Life Sciences) and using a peroxidase labelled rabbit antimouse IgG fragment (second antibody). The plates were blocked by 5% nonfat milk in TBS (Tris buffered saline, pH 8.0) for one hour followed by overnight incubation with the first antibody (1:2,000 fold dilution) in 1% milk/TBS at 4° C. After rinsing the plates three times with 1% milk/TBS containing 0.05% Tween 20, the plates were incubated with 1:4000 dilution of the second antibody at room temperature for two hours. The plates were rinsed three times with 1% milk/TBS/Tween and three times with TBS. Color was developed by incubation with o-phenylene diamine and hydrogen peroxide. The optical density was read at 410 nm in a microtiter plate reader and the TG-1 levels were calculated as OD/DNA fluorescence. The mean ±Standard Deviation of at least six separate wells were used for calculation and statistical analysis of the data. Results are expressed as % of control.
Cornified envelope formation is determined by the activity of transglutaminase enzyme which cross-links all the envelope precursor proteins to form the envelope. This enzyme is calcium dependent and is inhibited by calcium chelators such as citric acid and citric acid esters.
(ELISA stands for enzyme-linked immunosorbent assay.)

Test [2] concerns human keratinocytes. In words: Cornified envelope (CE) formation, marker of terminal differentiation of keratinocytes. Type of test: cell-based. Particulars: Homo sapiens, Keratinocyte, read-out: CE Levels. Here is the method:
as §1, §2
Proper skin conditioning require enhanced proliferation and differentiation of epidermal keratinocytes. The different citrate esters were tested on their effect on cornified envelope (CE) formation, a marker of terminal differentiation of keratinocytes. Citrate esters were tested at 1 mM levels in medium containing 0.15 mM Ca. Levels are expressed as % of control ±SD. The CE formation for the control was 54.48 ±31.8 cpm/μg cell protein.

[3] abbreviates: 100 μM, 24 hours exposure, ±SD, * statistically significant compared to controls.
Setting [4] is: 1000 μM, 24 hours exposure, ±SD, * statistically significant compared to controls.
Setting [5] is: 10,000 μM, 24 hours exposure, ±SD, * statistically significant compared to controls.
The mark [6] stands for this setting: 10 μM, * statistically significant.
[7] abbreviates: 100 μM, * statistically significant.
[8] abbreviates: 1 mM, medium containing 0.15 mM Ca, ±SD, * statistically significant effects.

In the case of `CCOC(=O)CC(O)(CC(=O)OCC)C(=O)OCC` [TEC, triethylcitrate], in the test on human keratinocytes [1] (0.1 μM, 24 hours exposure, ±SD), the activity at 0.1 µM came to 112 ± 21.5%. The activity at 1 µM with human keratinocytes [1] (1.0 μM, 24 hours exposure, ±SD) was found to be 112 ± 13.1%. The activity at 10 µM with human keratinocytes [1] (10 μM, 24 hours exposure, ±SD) came out at 79.1 ± 13.9%. Further, the activity at 100 µM in the test with human keratinocytes [1] (setting [3]) came to 9.8 ± 2.3%. Moreover, the activity at 1000 µM in the test with human keratinocytes [1] (setting [4]) was 11.2 ± 9.2%; in the test on human keratinocytes [2] (setting [8]), 18.6 ± 4.2%. Also, the activity at 10000 µM in the test on human keratinocytes [1] (setting [5]) came to 1.2 ± 0.02%. For the same compound, the minimal effective concentration in the test with human keratinocytes [1] (24 hours exposure) is more than 10 µM. For the same compound, the “transglutaminase I levels” value in the test with Transglutaminase (TG-1) (1 μM) is recorded as 77.3 ± 10.7 % of control; in the test on Transglutaminase (TG-1) (setting [6]), 76.7 ± 20.8 % of control; in the test on Transglutaminase (TG-1) (setting [7]) it was 67.2 ± 11.9 % of control.
With `C[N+](C)(C)CCO` [Choline, choline], in the test with human keratinocytes [1] (24 h), the activity at 0.1 µM worked out at 125 ± 17.6%, the activity at 1 µM is 113 ± 12%, the activity at 10 µM is 109 ± 3.3% and the activity at 100 µM worked out at 114 ± 12%. In the test on human keratinocytes [1] (24 h), the activity at 1000 µM was found to be 115 ± 24% and the activity at 10000 µM amounted to 127 ± 10.7%. Moreover, the “transglutaminase I levels” value in the test with Transglutaminase (TG-1) (1 μM) is reported as 121.8 ± 18 % of control. Also, the “transglutaminase I levels” value in the test with Transglutaminase (TG-1) (setting [6]) is 124.2 ± 8.7 % of control. Further, in the test with Transglutaminase (TG-1) (setting [7]), the “transglutaminase I levels” value is reported as 120.4 ± 11.3 % of control. Moreover, the activity at 1000 µM in the test with human keratinocytes [2] turned out to be 135 ± 23.6%.
`CCCCOC(=O)CC(O)(CC(=O)OCCCC)C(=O)OCCCC` [TBC, tributylcitrate]: the activity at 0.1 µM in the test with human keratinocytes [1] (0.1 μM, 24 hours exposure, ±SD) came to 106 ± 8.4%. In the test on human keratinocytes [1] (1.0 μM, 24 hours exposure, ±SD), the activity at 1 µM is 100 ± 28%. Further, in the test on human keratinocytes [1] (10 μM, 24 hours exposure, ±SD), the activity at 10 µM was found to be 68.2 ± 13%. For the same compound, the activity at 100 µM in the test with human keratinocytes [1] (setting [3]) came to 8.7 ± 5.5%. For the same compound, the activity at 1000 µM was found to be 1.35 ± 0.1% with human keratinocytes [1] (setting [4]) and 23.6 ± 2.1% in the test on human keratinocytes [2] (setting [8]). In the test on human keratinocytes [1] (setting [5]), the activity at 10000 µM was 0.505%. The minimal effective concentration in the test with human keratinocytes [1] (24 hours exposure) was more than 10 µM. The “transglutaminase I levels” value with Transglutaminase (TG-1) (1 μM) was 100 ± 13 % of control; with Transglutaminase (TG-1) (setting [6]), 79 ± 13 % of control; in the test on Transglutaminase (TG-1) (setting [7]) it was 79 ± 13 % of control.
